From patent US9694016B2 (Novartis AG, priority 2013, dated 2017)
Read-outs that look alike come from different tables or passages of the source.

Biological target: b-Raf (V600E) (Homo sapiens (Human), UniProt P15056, V600E)
Conditions: read-out: b-Raf IC-50, AlphaScreen
[1] = 60 min pre-incubation, reaction 3 hours at room temperature
[2] = 60 min pre-incubation, 3 hours reaction

Chain of b-Raf (V600E) (P15056 whole entry V600E): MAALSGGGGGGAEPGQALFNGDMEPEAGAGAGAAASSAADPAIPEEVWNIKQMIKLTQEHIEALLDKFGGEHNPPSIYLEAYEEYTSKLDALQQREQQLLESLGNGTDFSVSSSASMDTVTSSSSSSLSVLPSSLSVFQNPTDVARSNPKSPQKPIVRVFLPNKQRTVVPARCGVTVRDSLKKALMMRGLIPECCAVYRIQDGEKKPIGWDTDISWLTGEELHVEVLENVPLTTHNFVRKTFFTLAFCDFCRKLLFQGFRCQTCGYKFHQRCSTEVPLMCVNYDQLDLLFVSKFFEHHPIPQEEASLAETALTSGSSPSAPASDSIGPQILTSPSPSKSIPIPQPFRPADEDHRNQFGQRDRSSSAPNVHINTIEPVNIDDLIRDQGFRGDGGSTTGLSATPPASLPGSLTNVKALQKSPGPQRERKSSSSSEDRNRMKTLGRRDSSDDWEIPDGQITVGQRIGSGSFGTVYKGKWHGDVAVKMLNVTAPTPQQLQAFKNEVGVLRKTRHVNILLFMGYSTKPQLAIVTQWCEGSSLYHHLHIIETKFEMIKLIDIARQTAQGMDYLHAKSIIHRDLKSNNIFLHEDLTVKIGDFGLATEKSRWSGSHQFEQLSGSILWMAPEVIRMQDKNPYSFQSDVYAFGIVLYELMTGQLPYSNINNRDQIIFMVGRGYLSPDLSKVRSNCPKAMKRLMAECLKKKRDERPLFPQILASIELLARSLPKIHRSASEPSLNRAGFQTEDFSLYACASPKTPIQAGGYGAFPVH

| SMILES | IC50 [1] | IC50 [2] | also measured |
| --- | --- | --- | --- |
| CCOc1cc(-c2cc(NC(=O)c3ccnc(C(F)F)c3)cnc2C)cc(N2CCOCC2)n1 [Example 1146, 2-(difluoromethyl)-N-(2′-ethoxy-2-methyl-6′-morpholino-[3,4′-bipyridin]-5-yl)isonicotinamide] | 1.87 nM |  |  |
| Cc1ccc(NC(=O)c2cccc(S(C)(=O)=O)c2)cc1-c1ccnc(N2CCOCC2)c1 [Example 68, N-(4-methyl-3-(2-morpholinopyridin-4-yl)phenyl)-3-(methylsulfonyl)benzamide] |  |  | IC50 (Table 2, 3 hours reaction): 0.6 nM |
| Cc1ccc(NC(=O)c2cccc(C(F)F)c2)cc1-c1cc(N2CCOCC2)nc(N2CCOCC2)c1 [Example 1116, 3-(difluoromethyl)-N-(3-(2,6-dimorpholinopyridin-4-yl)-4-methylphenyl)benzamide] | 0.82 nM |  |  |
| Cc1ccc(NC(=O)c2ccnc(C(C)(C)C#N)c2)cc1-c1cc(N2CCOCC2)c2nccn2n1 [Example 844, 2-(2-cyanopropan-2-yl)-N-(4-methyl-3-(8-morpholinoimidazo[1,2-b]pyridazin-6-yl)phenyl)isonicotinamide] |  | 1.7 nM |  |
| Cc1ccc(NC(=O)c2ccnc(C(C)(C)C#N)c2)cc1-c1cn2ccnc2c(N2CCOCC2)n1 [Example 860, 2-(2-cyanopropan-2-yl)-N-(4-methyl-3-(8-morpholinoimidazo[1,2-a]pyrazin-6-yl)phenyl)isonicotinamide] | 11.6 nM |  |  |
| Cc1ccc(NC(=O)c2cc(C(C)(C)F)ccn2)cc1-c1cc(N2CCOCC2)c(=O)n(C)c1 [Example 907, 4-(2-fluoropropan-2-yl)-N-(4-methyl-3-(1-methyl-5-morpholino-6-oxo-1,6-dihydropyridin-3-yl)phenyl)picolinamide] | 4.43 nM |  |  |
| CCNc1nc(-c2cc(NC(=O)c3cnnc(C4CC4)c3)cnc2C)cc(N2CCOCC2)n1 [Example 727, 6-cyclopropyl-N-(5-(2-(ethylamino)-6-morpholinopyrimidin-4-yl)-6-methylpyridin-3-yl)pyridazine-4-carboxamide] |  | 8.5 nM |  |
| COc1ncc(-c2cc(NC(=O)c3ccnc(C(C)(C)F)c3)cnc2C)cc1N1CCOCC1 [Example 281, N-(6′-methoxy-2-methyl-5′-morpholino-[3,3′-bipyridin]-5-yl)-2-(2-fluoropropan-2-yl)isonicotinamide] |  |  | IC50 (Table 2, 3 hours reaction): 6.3 nM |
| Cc1ncc(NC(=O)c2ccnc(C(F)F)c2)cc1-c1cnc(OC(F)F)c(N2CCOCC2)c1 [Example 982, N-(6′-(difluoromethoxy)-2-methyl-5′-morpholino-[3,3′-bipyridin]-5-yl)-2-(difluoromethyl)isonicotinamide] | 2.44 nM |  |  |
| CCOc1nnc(-c2cc(NC(=O)c3ccnc(C4CC4)c3)cnc2C)cc1N1CCOCC1 [Example 612, 2-cyclopropyl-N-(5-(6-ethoxy-5-morpholinopyridazin-3-yl)-6-methylpyridin-3-yl)isonicotinamide] |  | 1.8 nM |  |
| Cc1ncc(NC(=O)c2cccc(C(F)(F)F)c2)cc1-c1cnc(OC(C)C)c(N2CCOCC2)c1 [Example 134, N-(6′-isopropoxy-2-methyl-5′-morpholino-[3,3′-bipyridin]-5-yl)-3-(trifluoromethyl)benzamide] |  |  | IC50 (Table 2, 3 hours reaction): 2.4 nM |
| Cc1ccc(NC(=O)c2ccnc(C(F)F)c2)cc1-c1cc(OC2CCOCC2)nc(N2CCOCC2)c1 [Example 1151, 2-(difluoromethyl)-N-(4-methyl-3-(2-morpholino-6-((tetrahydro-2H-pyran-4-yl)oxy)pyridin-4-yl)phenyl)isonicotinamide] | 0.6 nM |  |  |
| Cc1ccc(NC(=O)c2ccnc(C(F)F)c2)cc1-c1cc(N2CCOCC2)nc(N2CCOCC2)c1 [Example 1115, 2-(difluoromethyl)-N-(3-(2,6-dimorpholinopyridin-4-yl)-4-methylphenyl)isonicotinamide] | 0.65 nM |  |  |
| Cc1ncc(NC(=O)c2cccc(S(C)(=O)=O)c2)cc1-c1cnc(OC2CCOCC2)c(N2CCOCC2)c1 [Example 937, N-(2-methyl-5′-morpholino-6′-((tetrahydro-2H-pyran-4-yl)oxy)-[3,3′-bipyridin]-5-yl)-3-(methylsulfonyl)benzamide] | 4.53 nM |  |  |
| Cc1ccc(C(=O)Nc2cccc(C(F)(F)F)c2)cc1-c1cc(N2CCOCC2)nc(N2CC(O)C2)n1 [Example 766, 3-(2-(3-hydroxyazetidin-1-yl)-6-morpholinopyrimidin-4-yl)-4-methyl-N-(3-(trifluoromethyl)phenyl)benzamide] |  | 1.8 nM |  |
| Cn1cc(-c2cc(NC(=O)c3ccnc(C(C)(F)F)c3)ccc2F)cc(N2CCOCC2)c1=O [Example 419] |  |  | IC50 (Table 2, 3 hours reaction): 4.3 nM |
| CCOc1nnc(-c2cc(NC(=O)c3ccnc(C(C)(C)C#N)c3)cnc2C)cc1N1CCOCC1 [Example 613, 2-(2-cyanopropan-2-yl)-N-(5-(6-ethoxy-5-morpholinopyridazin-3-yl)-6-methylpyridin-3-yl)isonicotinamide] |  | 10 nM |  |
| CCC(F)(F)c1cc(C(=O)Nc2cnc(C)c(-c3cc(C4COCCO4)nc(N4CCOCC4)c3)c2)ccn1 (centres unmarked) [Example 1168, N-(2′-(1,4-dioxan-2-yl)-2-methyl-6′-morpholino-[3,4′-bipyridin]-5-yl)-2-(1,1-difluoropropyl)isonicotinamide] | 4.56 nM |  |  |

| SMILES | IC50 [1] | IC50 [2] | also measured |
| --- | --- | --- | --- |
| Cc1ccc(NC(=O)c2cccc(C(F)F)c2)cc1-c1cc(N2CCOCC2)c2nccn2n1 [Example 847, 3-(difluoromethyl)-N-(4-methyl-3-(8-morpholinoimidazo[1,2-b]pyridazin-6-yl)phenyl)benzamide] |  | 0.2 nM |  |
| Cc1ccc(NC(=O)c2ccnc(C(C)(C)C#N)c2)cc1-c1cc(N2CCOCC2)nc(N2CCOCC2)c1 [Example 1113, 2-(2-cyanopropan-2-yl)-N-(3-(2,6-dimorpholinopyridin-4-yl)-4-methylphenyl)isonicotinamide] | 1.32 nM |  |  |
| CCOc1ncc(-c2cc(NC(=O)c3cc(CN(C)C)cc(C(F)(F)F)c3)cnc2C)nc1N1CCOCC1 [Example 545, 3-((dimethylamino)methyl)-N-(5-(5-ethoxy-6-morpholinopyrazin-2-yl)-6-methylpyridin-3-yl)-5-(trifluoromethyl)benzamide] |  | 16.5 nM |  |
| Cc1ncc(NC(=O)c2ccnc(C(C)(C)O)c2)cc1-c1cc(N2CCOCC2)c(OC2CCOCC2)nn1 [Example 634, 2-(2-hydroxypropan-2-yl)-N-(6-methyl-5-(5-morpholino-6-((tetrahydro-2H-pyran-4-yl)oxy)pyridazin-3-yl)pyridin-3-yl)isonicotinamide] |  | 17.1 nM |  |
| Cc1ccc(NC(=O)c2ccnc(C(C)(C)C#N)c2)cc1-c1nc2c(c(N3CCOCC3)n1)CNC2 [Example 866, 2-(2-cyanopropan-2-yl)-N-(4-methyl-3-(4-morpholino-6,7-dihydro-5H-pyrrolo[3,4-d]pyrimidin-2-yl)phenyl)isonicotinamide] | 7.6 nM |  |  |
| Cc1ccc(NC(=O)c2ccnc(C3(C#N)CC3)c2)cc1-c1cc(N2CCOCC2)n(C)c(=O)c1 [Example 480, 2-(1-cyanocyclopropyl)-N-(4-methyl-3-(1-methyl-6-morpholino-2-oxo-1,2-dihydropyridin-4-yl)phenyl)isonicotinamide] |  | 0.6 nM |  |
| Cc1ccc(NC(=O)c2cccnn2)cc1-c1ccnc(N2CCOCC2)c1 [Example 67, N-(4-methyl-3-(2-morpholinopyridin-4-yl)phenyl)pyridazine-3-carboxamide] |  |  | IC50 (Table 2, 3 hours reaction): 500 nM |
| CCOc1nnc(-c2cc(NC(=O)c3cccc(S(C)(=O)=O)c3)cnc2C)cc1N1CCOCC1 [Example 618, N-(5-(6-ethoxy-5-morpholinopyridazin-3-yl)-6-methylpyridin-3-yl)-3-(methylsulfonyl)benzamide] |  | 5 nM |  |
| Cc1ncc(NC(=O)c2ccnc(C(F)(F)F)c2)cc1-c1cc(N2CCOCC2)nc(N2CCOCC2)c1 [Example 1120, N-(2-methyl-2′,6′-dimorpholino-[3,4′-bipyridin]-5-yl)-2-(trifluoromethyl)isonicotinamide] | 1.63 nM |  |  |
| COc1nnc(-c2cc(NC(=O)c3cnnc(C(C)(C)C#N)c3)ccc2C)cc1N1CCOCC1 [Example 557, 6-(2-cyanopropan-2-yl)-N-(3-(6-methoxy-5-morpholinopyridazin-3-yl)-4-methylphenyl)pyridazine-4-carboxamide] |  | 5.4 nM |  |
| Cc1ccc(NC(=O)c2cccc(OC(F)(F)F)c2)cc1-c1cc(N2CCOCC2)c(=O)n(C)c1 [Example 340, N-(4-methyl-3-(1-methyl-5-morpholino-6-oxo-1,6-dihydropyridin-3-yl)phenyl)-3-(trifluoromethoxy)benzamide] |  |  | IC50 (Table 2, 3 hours reaction): 36.4 nM |
| Cc1ccc(NC(=O)c2cccc(C(C)(C)S(C)(=O)=O)c2)cc1-c1cc(N2CCOCC2)c(=O)n(C)c1 [Example 351, N-(4-methyl-3-(1-methyl-5-morpholino-6-oxo-1,6-dihydropyridin-3-yl)-phenyl)-3-(2-(methylsulfonyl)propan-2-yl)benzamide] |  |  | IC50 (Table 2, 3 hours reaction): 19.5 nM |
| Cc1ccc(NC(=O)c2cc(C(F)(F)F)ccn2)cc1-c1cc(N2CCOCC2)c(OC(C)C)nn1 [Example 594, N-(3-(6-isopropoxy-5-morpholinopyridazin-3-yl)-4-methylphenyl)-4-(trifluoromethyl)picolinamide] |  | 0.8 nM |  |
| Cc1ncc(NC(=O)c2cc(C(C)(C)C#N)ccn2)cc1-c1cnc(OC(F)F)c(N2CCOCC2)c1 [Example 981, 4-(2-cyanopropan-2-yl)-N-(6′-(difluoromethoxy)-2-methyl-5′-morpholino-[3,3′-bipyridin]-5-yl)picolinamide] | 7.65 nM |  |  |
| Cc1ccc(NC(=O)c2ccnc(C(C)(C)C#N)c2)cc1-c1cnc(OC(F)F)c(N2CCOCC2)c1 [Example 223, 2-(2-cyanopropan-2-yl)-N-(3-(6-(difluoromethoxy)-5-morpholinopyridin-3-yl)-4-methylphenyl)isonicotinamide] |  |  | IC50 (Table 2, 3 hours reaction): 2.2 nM |
| Cc1ncc(NC(=O)c2cnnc(C(C)(C)C#N)c2)cc1-c1cnc(OCC(F)F)c(N2CCOCC2)c1 [Example 962, 6-(2-cyanopropan-2-yl)-N-(6′-(2,2-difluoroethoxy)-2-methyl-5′-morpholino-[3,3′-bipyridin]-5-yl)pyridazine-4-carboxamide] | 15.4 nM |  |  |
| Cc1ccc(NC(=O)c2ccnc(C(C)C)c2)cc1-c1cc(N2CCOCC2)nc(N2CC(O)C2)c1 [Example 1069, N-(3-(2-(3-hydroxyazetidin-1-yl)-6-morpholinopyridin-4-yl)-4-methylphenyl)-2-isopropylisonicotinamide] | 2.64 nM |  |  |
